Here are results for 88 molecules from PubChem BioAssay AID1645848.

SMILES strings stand for the structures. ≈ marks a conversion by molar mass, not a printed value. Some results are limits rather than exact numbers.

The conditions of this series: buffer; pH 7.4; 6.0 h; 150.0 µM.
Broadly, the kinetic solubility is solubility judged after dilution from a stock solution rather than from solid. Consider `CCNC(=O)c1coc(COc2ccc3c(c2)C(c2ccc(F)cc2)N(C(=O)CC(C)C)CC3)n1` (stereo not drawn), for which the solubility (kinetic) stood at 3.8 µg/mL (≈ 7.92 µM).
For `Cc1ccc(C)c(CN2CCC(CNC(=O)Nc3ccc(Br)cc3F)CC2)c1` the value was 27.9 µg/mL (≈ 62.3 µM); for `CCOc1ccc(CCNC(=O)c2ccnn2Cc2cccc(C)c2)cc1OCC`, 2.88 µg/mL (≈ 7.06 µM).
In the case of `COc1ccccc1Nc1ccnc(N2CCN(C(=O)c3ccccc3Cl)CC2)n1` it was 1.59 µg/mL (≈ 3.75 µM).
For `CN1CCN(Cc2ccc(-c3ccc(C(C)(C)C#N)cc3)nc2)CC1` the value was greater than 49 µg/mL; for `Cn1ccc2c(C(=O)NCCC(N)=O)nc(-c3cccc(CO)c3)cc21`, greater than 78 µg/mL.
For the molecule `Cc1ccc(-c2csc(CCn3nc(C)c4c(C(F)(F)F)cc(=O)[nH]c43)n2)cc1`, the kinetic solubility was less than 1 µg/mL.
In the case of `CCOC(=O)C1CCN(c2ncnc3c2c(-c2ccccc2)cn3-c2ccccc2)CC1` it was less than 1 µg/mL.
With `O=S(=O)(Nc1nccs1)c1ccc(NCc2ccccc2O)cc1`, the solubility (kinetic) was greater than 53 µg/mL.
In the case of `CCn1c(=NC(=O)c2ccc(S(=O)(=O)N3CCCCC3)cc2)sc2cccc(OC)c21` it was less than 1 µg/mL; in that of `Cc1ccc(S(=O)(=O)Nc2cc(Br)ccc2C(=O)Nc2nc(-c3ccccc3)cs2)cc1`, less than 1 µg/mL.
`COc1ccc(CCNC(=O)c2cc3c(=O)n4ccccc4nc3n(CCCN3CCOCC3)c2=N)cc1`: the kinetic solubility was greater than 76 µg/mL.
`CC(=O)c1ccc(N2CCN(c3ccc(NC(=O)c4ccc(F)cc4)cc3C(=O)O)CC2)cc1` came in with a kinetic solubility of less than 1 µg/mL.
In the case of `Cc1cnc(N2CCC(C(N)=O)CC2)nc1-c1cccc(N(C)C)c1` it was greater than 50 µg/mL.
In the case of `COc1cccc(CNc2ccc(C(=O)Nc3nccs3)cc2)c1O` it was less than 1 µg/mL.
In the case of `O=S(=O)(Nc1ccc(-c2ccccc2)cc1)c1ccc(NCc2ccc(Br)cc2O)cc1` it was less than 1 µg/mL; in that of `COc1ccc(-c2cc(-c3ccccc3)nc(SCC(=O)Nc3ccccc3C)c2C#N)cc1`, less than 1 µg/mL.
`COC(=O)c1ccc(Oc2nc3c(c(=O)n(C)c(=O)n3C)n2CCC(C)C)cc1` registered a solubility (kinetic) of less than 1 µg/mL.
In the case of `CC[C@@H](CO)NC(=O)[C@@H]1C=C2c3cccc4c3c(cn4C)C[C@H]2N(C)C1` it was greater than 52 µg/mL.
As to `CC1=C(C(=O)Nc2nnc(-c3ccccc3)s2)C(c2[nH]ncc2Cl)N=C(Nc2nc3ccccc3o2)N1` (stereo not drawn), the solubility (kinetic) is less than 1 µg/mL.
For `O=C(Nc1ccc([S+](=O)([O-])Nc2nccs2)cc1)c1ncn[nH]1` the value was greater than 52 µg/mL.
For `CC(C)=CCNc1ncnc2nc[nH]c12` the value was greater than 30 µg/mL; for `Cc1cc(-c2cc3c(nc2-c2ccccc2)nc(C(=O)NCCN(C)C)n3C)ccn1`, 54.5 µg/mL (≈ 132 µM).
In the case of `O=C(NCC1CCN(Cc2cccc(Cl)c2)CC1)Nc1ccc(F)c(Cl)c1` it was 25.1 µg/mL (≈ 61.3 µM); in that of `c1cn2cc(-c3ccc4cn[nH]c4c3)nc(Nc3ccc(N4CCOCC4)cc3)c2n1`, less than 1 µg/mL.
Consider `CN(C)CCCn1cc(C2=C(c3c[nH]c4ccccc34)C(=O)NC2=O)c2ccccc21`, for which the kinetic solubility was greater than 41 µg/mL.
For `CCN(CC)CCCCNc1ncc2cc(-c3c(Cl)cccc3Cl)c(NC(=O)NC(C)(C)C)nc2n1` the value was 34.7 µg/mL (≈ 65.2 µM); for `O=S(=O)(Nc1nc2ccccc2s1)c1ccc(NCc2ccc(Br)cc2O)cc1`, 4.87 µg/mL (≈ 9.92 µM); for `Cc1sc(NC(=O)Cc2ccc3c(c2)OCO3)nc1-c1ccc2c(c1)CCN2`, less than 1 µg/mL.
For `COc1cccc(CC(=O)Nc2nc(-c3ccc4c(c3)CCN4C(=O)c3ccccc3C)c(C)s2)c1` the value was less than 1 µg/mL.
In turn, `COc1ccc(NC(=O)c2c(C)cccc2C)cc1[S+](=O)([O-])N1CCCCCC1` returned a kinetic solubility of 15.8 µg/mL (≈ 37.9 µM).
For `Cc1ccnc(NC(=S)N2CCN(c3cc(F)cc(Cl)c3)CC2)c1` the value was less than 1 µg/mL.
For `Cc1cccc(-n2cnc3cc(C(=O)N4CCCCC4)ccc32)c1` the value was greater than 47 µg/mL.
In the case of `CCOc1ccc(NC(=O)c2nc(S(=O)(=O)Cc3ccccc3F)ncc2Cl)cc1` it was less than 1 µg/mL.
`NC(=O)C1CCN(c2ncc(-c3ccc(Cl)cc3)s2)CC1` gave a solubility (kinetic) of less than 1 µg/mL.
For `Nc1c(C(=O)Nc2ccc(Cl)c(C(F)(F)F)c2)sc2nc3c(cc12)N1CCC3CC1` the value was less than 1 µg/mL; for `CC(=O)Nc1ccc(-c2csc(N3CCC(C(N)=O)CC3)n2)cc1`, greater than 51 µg/mL; for `O=C(Nc1ccc(S(=O)(=O)Nc2nc(-c3ccccc3)cs2)cc1)c1ccc2ccccc2c1`, less than 1 µg/mL.
For `NC(=O)c1ccc(-c2nc3c([nH]2)CN(C(=O)CN2CCOCC2)CC3)cc1` the value was greater than 55 µg/mL.
Consider `O=C(c1ccccc1)N1CCN(c2nc(-c3ccc(Br)cc3)cs2)CC1`, for which the kinetic solubility is less than 1 µg/mL.
`O=C(Nc1ccc(Cl)c(S(=O)(=O)N2CCOCC2)c1)c1ccccc1` yielded a solubility (kinetic) of less than 1 µg/mL.
For `CCN1CCN(C(=O)CCCn2nc(C)c3c(C)n(-c4ccc(C)cc4)nc3c2=O)CC1` the value was greater than 43 µg/mL; for `CN(C)c1ccc(CN2CCNc3cc(Nc4ccccc4)ncc3C2)cc1`, greater than 83 µg/mL.
In the case of `O=C(NCc1ccccc1)c1cn2cc(-c3ccccc3)sc2n1` it was less than 1 µg/mL.
For `Cc1ccc(NC(=O)c2cc(S(=O)(=O)NCCC3=CCCCC3)ccc2F)cc1F` the value was less than 1 µg/mL; for `CC(=O)NCc1ccc(-c2csc(Nc3cccc(C)c3)n2)o1`, 29.8 µg/mL (≈ 91.1 µM).
With `COc1ccc(C(=O)Nc2nc(-c3ccccc3)cs2)c(OC)c1`, the kinetic solubility was less than 1 µg/mL.
In the case of `Nc1nc2c(s1)C(c1cc(Cl)ccc1F)CC(=O)N2` (stereo not drawn) it was 3.78 µg/mL (≈ 12.7 µM); in that of `NC(=O)N1CCCC(C(=O)N2CCCN(c3ccc(F)cc3)CC2)C1` (stereo not drawn), greater than 51 µg/mL.
For `COc1ccc(C)cc1NS(=O)(=O)c1ccc(-c2cnc(C3CC3)o2)cc1` the value was less than 1 µg/mL; for `O=C1Nc2ccc(Cl)cc2/C1=C\c1cc(Cl)c(O)c(Cl)c1`, 19 µg/mL (≈ 55.8 µM).
Regarding `COc1ccccc1NC(=O)C1=C(C)Nc2c(C(=O)Nc3cccc(C)c3)cnn2C1c1ccccc1Cl` (stereo not drawn), the solubility (kinetic) was less than 1 µg/mL.
For `Cc1ccc(NS(=O)(=O)c2cc3c(cc2N[C@H](C)CO)NC(=O)CC3)cc1C` the value was greater than 60 µg/mL.
`CC(C)(O)Cn1c(NC(=O)c2ccc(-c3cn[nH]c3)s2)nc2cc(CN3CCOCC3)ccc21` displayed a solubility (kinetic) of 47 µg/mL (≈ 97.8 µM).
Consider `Cc1cc(C)nc(NC(=S)N2CCN(c3cccc(C(F)(F)F)n3)CC2)c1`, for which the solubility (kinetic) stood at 20.6 µg/mL (≈ 52 µM).
For `O=c1[nH]c(N2CCOCC2)nc2c1CCN(Cc1cc(Cl)ccc1F)CC2` the value was 28.6 µg/mL (≈ 72.7 µM); for `CC(=O)Nc1ccc(C(=O)Nc2ccccc2N)cc1`, greater than 40 µg/mL; for `Cc1noc(C)c1-c1ccc2ncnc(N3CCC(C(=O)O)CC3)c2c1`, greater than 52 µg/mL.
Consider `O=[S+]([O-])(Nc1ccccc1)c1ccc(NCc2ccc(Cl)cc2O)cc1`, for which the kinetic solubility turned out to be 2.64 µg/mL (≈ 6.79 µM).
For `Nc1c(S(=O)(=O)c2cccs2)c2nc3ccccc3nc2n1Cc1ccccc1` the value was less than 1 µg/mL; for `COc1cccc(CNc2ccc(S(=O)(=O)Nc3ncc(-c4ccccc4)s3)cc2)c1O`, 6.07 µg/mL (≈ 13 µM).
For `Cc1ccc(NS(=O)(=O)c2cccc(C(=O)O)c2)cc1S(=O)(=O)N1CCOCC1`, the solubility (kinetic) was greater than 65 µg/mL.
In turn, `COc1cc(C(=O)NC2CCCc3c2[nH]c2c(Cl)cccc32)cc(OC)c1OC` (stereo not drawn) returned a solubility (kinetic) of less than 1 µg/mL.
In the case of `COc1cccc(-c2nc(-c3cc4cc(OC)ccc4[nH]c3=O)no2)c1` it was less than 1 µg/mL; in that of `COc1cc2c(c(OC)c1OC)-c1ccc(OC)c(=O)cc1[C@@H](NC(C)=O)CC2`, 21 µg/mL (≈ 52.5 µM); in that of `CN(C)CCN1C(=O)c2cccc3cc(N)cc(c23)C1=O`, greater than 42 µg/mL.
In turn, `COc1cccc(Nc2nc(-c3ccncc3)nc3ccccc23)c1` showed a kinetic solubility of less than 1 µg/mL.
In the case of `Nc1ncnc2c1ncn2[C@H]1O[C@@H](CO)[C@@H](O)[C@H]1N` it was greater than 39 µg/mL; in that of `NC(=O)C1CCN(c2nc(-c3ccccc3-c3ccccc3)cs2)CC1`, 30.6 µg/mL (≈ 84.3 µM).
For `CNC(=O)c1ccc(C)c(-n2c(C)cc(OCc3ccc(F)cc3F)c(Br)c2=O)c1` the value was greater than 100 µg/mL; for `Cn1c2ccccc2c2c3c(c4c5ccccc5n(CCC#N)c4c21)CNC3=O`, less than 1 µg/mL; for `COC(=O)c1cc2occc2n1Cc1nc(-c2ccc(C)cc2)oc1C`, less than 1 µg/mL.
For `O=C(Nc1ccc(OC(F)(F)Cl)cc1)c1cnc(N2CC[C@@H](O)C2)c(-c2ccn[nH]2)c1` the value was 14.6 µg/mL (≈ 32.4 µM).
`COc1ccc(C(=O)N2CCCC(c3nn(-c4ccc(OC)cc4)c(=O)[nH]3)C2)cc1` (stereo not drawn): the solubility (kinetic) was greater than 60 µg/mL.
In the case of `COc1ccc(CCn2c(N)cc(=O)[nH]c2=S)cc1OC` it was greater than 45 µg/mL.
`O=C(Nc1ccc(Br)cc1)c1ccc(F)c(S(=O)(=O)NC2CCCCCC2)c1` displayed a kinetic solubility of less than 1 µg/mL.
For `O=C(NCCc1ccccc1)C1CCN(c2nc(-c3ccc(Br)cc3)cs2)CC1` the value was 4.49 µg/mL (≈ 9.54 µM); for `COc1cccc(CNc2ccc(S(=O)(=O)Nc3cccc(-c4ccccc4)c3)cc2)c1O`, less than 1 µg/mL; for `COc1ccc(-n2nc(C3CCCN(C(=O)c4ccccc4)C3)[nH]c2=O)cc1` (stereo not drawn), greater than 56 µg/mL.
For `C#CCNC(=O)c1nc(-c2ccc([S+](C)(=O)[O-])cc2)c2cnccn12` the value was less than 1 µg/mL; for `NCC(=O)Nc1cccc(-c2nn3c(=O)cc(N4CCNCC4)nc3s2)c1`, 43.2 µg/mL (≈ 112 µM).
The molecule `CCCCCn1c(=O)[nH]c2cc(C(=O)NCCCN3CCC(C)CC3)ccc2c1=O` displayed a kinetic solubility greater than 61 µg/mL.
For `NC(=O)C1CCN(c2nccc(-c3ccc(Br)cc3)n2)CC1` the value was 5.39 µg/mL (≈ 14.9 µM); for `Cc1ccc(O)c(-c2cc(-c3ccccc3C)[nH]n2)c1`, less than 1 µg/mL; for `O=c1c(-c2ccc(O)cc2)coc2cc(O)cc(O)c12`, 27.3 µg/mL (≈ 101 µM).
In the case of `Cc1cc(C)nc(NC(=S)N2CCN(c3ccncc3)CC2)c1` it was greater than 48 µg/mL; in that of `CCc1cccc(NC(=O)c2c(C)oc3nc(C)nc(N4CCCC4)c23)c1`, 14.8 µg/mL (≈ 40.6 µM); in that of `Cc1noc(C)c1[S+](=O)([O-])N1CCC2(CC1)CC(c1cccc(C(F)(F)F)c1)=NO2`, less than 1 µg/mL.
